For 2 compounds, zone of inhibition and MIC results are on record in ChEMBL document CHEMBL3045835, “Comparative study of conventional and microwave-assisted synthesis of some Schiff bases and their potential as antimicrobial agents” (2012).

In brackets after ≈: the same amount, converted by molar mass.

What all share (type): functional
The subject of one test is Aspergillus niger. Briefly: Antifungal activity against Aspergillus niger MTCC 2546 at 100 ug/ml after 18 hr by cup-plate method. Conditions: MTCC 2546, 18 h, read-out: DIZ.
In a further test the test system is Penicillium chrysogenum. Put plainly: Antifungal activity against Penicillium chrysogenum MTCC 161 at 100 ug/ml after 18 hr by cup-plate method. Conditions: MTCC 161, 18 h, read-out: DIZ.
Test [1] concerns Micrococcus luteus. Briefly: Antibacterial activity against Micrococcus luteus MTCC 1538 after 24 hr by broth dilution method. Conditions: MTCC 1538, 24 h. (In general: In broth dilution the organism is exposed to a series of concentrations in liquid medium.)
Test [2] relates to Bacillus pumilus. Briefly: Antibacterial activity against Bacillus pumilus MTCC 1456 at 100 ug/ml after 18 hr by cup-plate method. Conditions: MTCC 1456, 18 h, read-out: DIZ.
For test [3], the system named is Micrococcus luteus. Briefly: Antibacterial activity against Micrococcus luteus MTCC 1538 at 100 ug/ml after 18 hr by cup-plate method. Conditions: MTCC 1538, 18 h, read-out: DIZ.
The subject of test [4] is Pseudomonas aeruginosa. Put plainly: Antibacterial activity against Pseudomonas aeruginosa MTCC 424 at 100 ug/ml after 18 hr by cup-plate method. Conditions: MTCC 424, 18 h, read-out: DIZ.
Test [5] deals with Bacillus subtilis. Put plainly: Antibacterial activity against Bacillus subtilis MTCC 441 after 24 hr by broth dilution method. To be noted: MTCC 441, 24 h.
Test [6] concerns Staphylococcus aureus. Briefly: Antibacterial activity against Staphylococcus aureus MTCC 1430 at 100 ug/ml after 18 hr by cup-plate method. Conditions: MTCC 1430, 18 h, read-out: DIZ.
The subject of test [7] is Bacillus subtilis. Put plainly: Antibacterial activity against Bacillus subtilis MTCC 441 at 100 ug/ml after 18 hr by cup plate method. Conditions: MTCC 441, 18 h, read-out: DIZ.
The test system of test [8] is Escherichia coli. Put plainly: Antibacterial activity against Escherichia coli MTCC 1573 at 100 ug/ml after 18 hr by cup-plate method. Conditions: MTCC 1573, 18 h, read-out: DIZ.
In test [9] the test system is Staphylococcus aureus. Briefly: Antibacterial activity against Staphylococcus aureus MTCC 1430 after 24 hr by broth dilution method. To be noted: MTCC 1430, 24 h.
Test [10] concerns Pseudomonas aeruginosa. Put plainly: Antibacterial activity against Pseudomonas aeruginosa MTCC 424 after 24 hr by broth dilution method. To be noted: MTCC 424, 24 h.
The subject of test [11] is Pseudomonas fluorescens. Briefly: Antibacterial activity against Pseudomonas fluorescens MTCC 2421 after 24 hr by broth dilution method. Conditions: MTCC 2421, 24 h.
Test [12] relates to Escherichia coli. Briefly: Antibacterial activity against Escherichia coli MTCC 1573 after 24 hr by broth dilution method. Conditions: MTCC 1573, 24 h.
In test [13] the test system is Bacillus pumilus. Briefly: Antibacterial activity against Bacillus pumilus MTCC 1456 after 24 hr by broth dilution method. Conditions: MTCC 1456, 24 h.
Test [14] concerns Pseudomonas fluorescens. Briefly: Antibacterial activity against Pseudomonas fluorescens MTCC 2421 at 100 ug/ml after 18 hr by cup-plate method. Conditions: MTCC 2421, 18 h, read-out: DIZ.

`OC(Cn1cncn1)(Cn1cncn1)c1ccc(F)cc1F` [FLUCONAZOLE]: the zone of inhibition at 100 µg/mL in the test with Aspergillus niger is 28 mm; in the test with Penicillium chrysogenum it was 16 mm.
Broadly, the MIC is the lowest concentration that inhibits growth of the organism. Read a low MIC as inhibition by little substance. Regarding `CCn1cc(C(=O)O)c(=O)c2cc(F)c(N3CCNCC3)cc21` [NORFLOXACIN], the MIC in the test on Micrococcus luteus [1], in the test on Bacillus subtilis [5], with Staphylococcus aureus [9], in the test with Pseudomonas aeruginosa [10], in the test with Pseudomonas fluorescens [11] and in the test with Escherichia coli [12] was 50 µg/mL (≈ 157 µM) throughout. The compound also registered an MIC in the test on Bacillus pumilus [13] of 50 µg/mL (≈ 157 µM). For the same compound, the zone of inhibition at 100 µg/mL in the test with Bacillus pumilus [2] turned out to be 28 mm; with Micrococcus luteus [3], 26 mm; in the test on Pseudomonas aeruginosa [4], 28 mm; with Staphylococcus aureus [6] it was 25 mm; in the test with Bacillus subtilis [7], 23 mm; in the test on Escherichia coli [8], 36 mm. In addition, in the test with Pseudomonas fluorescens [14], the zone of inhibition at 100 µg/mL amounted to 25 mm.
